According to publication PMC12431657, “Discovery and mechanistic insights of dibenzoylmethane as a broad spectrum inhibitor of coronavirus” (PLOS Pathogens, 2025):
Several values for one entry are separate records, joined by “and”; a condition that tells them apart may be missing. Equal values may be shown once. Read-outs that look alike come from different tables or passages of the source.

What was measured:
HCoV-229E = experiment: Antiviral activity in vitro, qRT-PCR, HCoV-229E in MRC-5 cells; format: cell-based; conditions: for HCoV-229E, MRC-5: inhibition at the concentration (Fig2B): replicates
HCoV-OC43 [1] = experiment: Antiviral activity in vitro, qRT-PCR, HCoV-OC43 in RD cells; format: cell-based; conditions: for EC50 (OC43, RD): inhibition at the concentration: replicates
HCoV-OC43 [2] = experiment: Viral binding assay; format: cell-based; conditions: MOI of 50, on ice 2 hours
Experimental: (§1) To obtain further insight into the stage at which DBM inhibits the replication of HCoV-OC43 and other HCoVs, RD cells were incubated with compounds, including DBM, remdesivir (RDV), and chloroquine (CQ), at different stages of viral infection. Viral RNA from the supernatant was extracted and quantitatively analysed via qRT-PCR. […] For the viral binding assay, cells were cultured in the presence or absence of DBM at different concentrations for 1 hour before being infected with HCoV-OC43 at an MOI of 50, and then were placed on ice for 2 hours for the viral particles to bind to the membrane of the host cells, followed by washing with PBS. […] In addition to binding to receptors from host cells, the spike proteins of HCoV-OC43 could also trigger membrane fusion when HCoV-OC43 spike plasmid-transfected 293T cells were seeded together with RD cells as target cells, and the addition of DBM had no effect on this process (S5C Fig). […] To determine whether DBM influences viral release, we quantified viral RNA both intracellularly and in the supernatant.
The cells were seeded onto 24-well plates and incubated overnight at 37 °C. […] The cells were washed three times with PBS before total RNA was extracted and analysed by qRT-PCR as previously described.

HCoV-OC43 spike protein = experiment: Cell-cell fusion assay (HCoV-OC43 spike); format: cell-based; conditions: spike-transfected 293T cells with RD cells
Experimental: as §1, with “Fig). To examine whether DBM inhibits viral internalisation, cells were inoculated with HCoV-OC43 for 1 hour on ice before being treated with either DBM or DMSO, and CQ was included to prevent endosomal acidification.” for “Fig).”, “supernatant. […]” for “supernatant.”

HCoV-OC43 [3] = experiment: Viral entry and internalization assay; format: cell-based; conditions: confocal microscopy
Experimental: as §1
The cells were seeded at a low density onto 35 mm glass bottom dishes with 10 mm microwells (Cellvis) and incubated overnight at 37 °C. […] The number of intracellular virus particles was quantified with ImageJ software.

HCoV-OC43 [4] = format: cell-based
HCoV-OC43 [5] = experiment: microbe, parasite or virus in culture; format: cell-based
HCoV-OC43 [6] = experiment: Cytokine gene expression in brains and spinal cords of infected mice; format: in vivo, BALB/c suckling mice; conditions: for CCL2 gene expression / CXCL10 gene expression / IL1B gene expression / IL6 gene expression / TNF gene expression: one value per animal

O=C(CC(=O)c1ccccc1)c1ccccc1 [DBM, dibenzoylmethane]
EC50 (HCoV-229E; Human coronavirus 229E, MRC5, 24 h, read-out: EC50 HCoV-229E (MRC-5)): 700 nM
HCoV-229E, MRC-5: inhibition at the concentration (Fig2B) (HCoV-229E; conc. 0.1 (unit not given)): 0.8 and 1.1 and 0.3
HCoV-229E, MRC-5: inhibition at the concentration (Fig2B) (HCoV-229E; conc. 0.2 (unit not given)): 1.4 and -2.2 and 0.6
HCoV-229E, MRC-5: inhibition at the concentration (Fig2B) (HCoV-229E; conc. 0.7 (unit not given)): 17.4 and 32.7 and 56.6
HCoV-229E, MRC-5: inhibition at the concentration (Fig2B) (HCoV-229E; conc. 2.2 (unit not given)): 69.7 and 42.7 and 53.8
HCoV-229E, MRC-5: inhibition at the concentration (Fig2B) (HCoV-229E; conc. 6.7 (unit not given)): 86.0 and 92.7 and 89.8
HCoV-229E, MRC-5: inhibition at the concentration (Fig2B) (HCoV-229E; conc. 20.0 (unit not given)): 94.3 and 95.3 and 95.9
EC50 (HCoV-OC43 [1]; Betacoronavirus 1, OC43, RD, 24 h, read-out: EC50 HCoV-OC43 (RD)): 350 nM
Viral RNA copies (Fig6B) (HCoV-OC43 [1]; OC43, concentration 4): 7.43E+03 and 9.55E+03 and 9.54E+03
Viral RNA copies (Fig6B) (HCoV-OC43 [1]; OC43, concentration 20): 3.88E+03 and 6.38E+03 and 7.34E+03
EC50 (OC43, RD): inhibition at the concentration (HCoV-OC43 [1]; conc. 0.1 (unit not given)): -75.5 and -76.6 and -100.8
EC50 (OC43, RD): inhibition at the concentration (HCoV-OC43 [1]; conc. 0.2 (unit not given)): 23.1 and 21.4 and 22.1
EC50 (OC43, RD): inhibition at the concentration (HCoV-OC43 [1]; conc. 0.7 (unit not given)): 88.5 and 91.5 and 92
EC50 (OC43, RD): inhibition at the concentration (HCoV-OC43 [1]; conc. 2.2 (unit not given)): 99.6
EC50 (OC43, RD): inhibition at the concentration (HCoV-OC43 [1]; conc. 6.7 (unit not given)): 99.9
EC50 (OC43, RD): inhibition at the concentration (HCoV-OC43 [1]; conc. 20 (unit not given)): 99.8
viral binding (HCoV-OC43 [2]): did not interfere
spike-triggered membrane fusion (HCoV-OC43 spike protein): had no effect
viral internalisation (HCoV-OC43 [3]): did not interfere
antiviral activity in CASP6 knockout cell pools (HCoV-OC43 [4]; RD cells): decreased
Viral inhibition (Fig5K) (HCoV-OC43 [4]; concentration 2, RD-CASP6 KO cells): 35.0 and 37.4 and 35.2
Viral inhibition (Fig5K) (HCoV-OC43 [4]; concentration 2, RD-Scramble cells): 87.9 and 90.6 and 92.3
Viral inhibition (Fig5K) (HCoV-OC43 [4]; concentration 20, RD-Scramble cells): 81.0 and 81.9 and 83.3
resistance of the virus after consecutive passages (HCoV-OC43 [5]; 17 consecutive passages in the presence of DBM): did not develop significant resistance
EC50 (HCoV-OC43 [5]; Betacoronavirus 1, OC43, read-out: EC50 of DBM against HCoV-OC43 passaged with DBM): 850 nM
EC50 (HCoV-OC43 [5]; Betacoronavirus 1, OC43, read-out: EC50 of DBM against HCoV-OC43 passaged with DMSO): 570 nM
viral inhibition (HCoV-OC43 [5]; DBM (virus passaged with DBM), concentration 1.7): 93.4 and 85.2
viral inhibition (HCoV-OC43 [5]; DBM (virus passaged with DBM), concentration 5.0): 99.5
viral inhibition (HCoV-OC43 [5]; column head DMSO (virus passaged with DMSO), concentration 5.0): 100.0
CCL2 gene expression (HCoV-OC43 [6]; BRAIN, DBM 100 mpk): 1.51 and 1.54 and 1.00 and 1.20 and 1.62 and 1.74
CXCL10 gene expression (HCoV-OC43 [6]; BRAIN, DBM 100 mpk): 2.90 and 3.33 (2×) and 2.35 and 2.81 and 3.27
IL1B gene expression (HCoV-OC43 [6]; BRAIN, DBM 100 mpk): 1.23 and 1.14 (2×) and 0.87 and 0.89 and 1.66
IL6 gene expression (HCoV-OC43 [6]; BRAIN, DBM 100 mpk): 0.95 and 1.15 and 0.67 and 0.94 and 1.52 and 1.33
TNF gene expression (HCoV-OC43 [6]; BRAIN, DBM 100 mpk): 1.36 (2×) and 0.92 and 0.88 and 1.72 and 1.28
CCL2 gene expression (HCoV-OC43 [6]; BRAIN, DBM 200 mpk): 1.46 and -0.88 and 0.68 and 1.08 and 1.88
CXCL10 gene expression (HCoV-OC43 [6]; BRAIN, DBM 200 mpk): 3.15 and -0.32 and 2.05 and 2.44 and 3.30
IL1B gene expression (HCoV-OC43 [6]; BRAIN, DBM 200 mpk): 1.27 and -1.00 and 0.43 and 0.66 and 1.46
IL6 gene expression (HCoV-OC43 [6]; BRAIN, DBM 200 mpk): 1.26 and -0.71 and 0.30 and 0.34 and 1.23
TNF gene expression (HCoV-OC43 [6]; BRAIN, DBM 200 mpk): 1.14 and -1.10 and 0.49 and 0.84 and 1.31
CCL2 gene expression (HCoV-OC43 [6]; BRAIN, DBM 500 mpk): 1.19 and 0.29 and 0.89 and 1.43
CXCL10 gene expression (HCoV-OC43 [6]; BRAIN, DBM 500 mpk): 2.39 and 1.30 and 1.07 and 2.91
IL1B gene expression (HCoV-OC43 [6]; BRAIN, DBM 500 mpk): 1.46 and 0.54 and 0.85 and 1.71
IL6 gene expression (HCoV-OC43 [6]; BRAIN, DBM 500 mpk): 0.93 and 0.71 and 0.92 and 1.17
TNF gene expression (HCoV-OC43 [6]; BRAIN, DBM 500 mpk): 1.05 and 0.22 and 0.74 and 1.31
inflammation (cytokine gene expression) in the brain and spinal cord (HCoV-OC43 [6]; CCL2, CXCL10, IL-1β, IL-6, TNF-α, 5 dpi): dramatically reduced inflammation
CCL2 gene expression (HCoV-OC43 [6]; SPINAL CORD, DBM 100 mpk): 0.10 and -0.50 and -0.53 and -0.21 and -0.06 and -0.89
CXCL10 gene expression (HCoV-OC43 [6]; SPINAL CORD, DBM 100 mpk): 2.03 and 1.48 and 0.34 and 0.55 and 1.02 and 0.66
IL1B gene expression (HCoV-OC43 [6]; SPINAL CORD, DBM 100 mpk): -0.76 and -1.28 and -0.98 and -0.97 and -0.64 and -1.78
IL6 gene expression (HCoV-OC43 [6]; SPINAL CORD, DBM 100 mpk): 1.39 and -0.72 and 0.41 and 1.02 and 0.87 and 0.47
TNF gene expression (HCoV-OC43 [6]; SPINAL CORD, DBM 100 mpk): 0.47 and -0.10 and -0.18 and 0.26 and 0.80 and -0.63
CCL2 gene expression (HCoV-OC43 [6]; SPINAL CORD, DBM 200 mpk): -0.12 and -1.42 and -0.38 and -0.65 and 0.03
CXCL10 gene expression (HCoV-OC43 [6]; SPINAL CORD, DBM 200 mpk): 1.47 and -1.58 and 0.55 and 0.23 and 1.42
IL1B gene expression (HCoV-OC43 [6]; SPINAL CORD, DBM 200 mpk): -0.83 and -1.94 and -0.93 and -0.47 and -0.26
IL6 gene expression (HCoV-OC43 [6]; SPINAL CORD, DBM 200 mpk): 0.59 and -0.46 and 0.79 and 0.02 and 0.49
TNF gene expression (HCoV-OC43 [6]; SPINAL CORD, DBM 200 mpk): -0.40 and -0.33 and -1.12 and -0.23 and 0.63
CCL2 gene expression (HCoV-OC43 [6]; SPINAL CORD, DBM 500 mpk): 2.46 and 1.15 and -0.63 and 0.95
CXCL10 gene expression (HCoV-OC43 [6]; SPINAL CORD, DBM 500 mpk): 3.10 and 2.34 and 0.15 and 1.92
IL1B gene expression (HCoV-OC43 [6]; SPINAL CORD, DBM 500 mpk): 2.44 and 0.22 and -1.51 and 0.43
IL6 gene expression (HCoV-OC43 [6]; SPINAL CORD, DBM 500 mpk): 3.07 and 2.18 and -0.81 and 1.64
TNF gene expression (HCoV-OC43 [6]; SPINAL CORD, DBM 500 mpk): 3.77 and 1.80 and -0.57 and 1.44
